The source of these data is patent US5877165A, “Boronated porhyrins and methods for their use” (priority 1997, dated 1999).

Several values for one entry are separate records, joined by “and”; a condition that tells them apart may be missing. Equal values may be shown once. Read-outs that look alike come from different tables or passages of the source.

Data set [1] can be described thus: Overall ranking of boronated porphyrins for BNCT guided by biodistribution and toxicity tests in mice (Table 11). The method, then:
The higher the numerical value, the better the performance of that porphyrin for that property. […] Although VCDP was able to deliver therapeutic amounts of boron to tumor, such side effects such as thrombocytopenia, which was induced within 3 hours after injections, weight loss, and the altered hepatic enzymes were serious enough to rank VCDP considerably behind the TCP's and the TCP-H's (Miura et al., 1992). In addition, the 80-hour drug administration period and the 90-hour blood clearance period are of great inconvenience. Moreover, this 4-day difference between the VCDP and the TCP (or TCP-H) dose and clearance schedules would translate into a 4-day greater delay between initiation of drug administration and neutron irradiation which would allow greater tumor growth to occur.
[…]
biodistribution and toxicity tests in mice. An asterisk indicates

The test system of data set [2] is 9L gliosarcomas. Details: species or system Fischer 344 rats. The conditions noted are these: rat, in vivo, iv. As to the method: 2C. Preparation of CuTCP and CuTCP-H Solution for Rat Studies
(§1) CuTCP-H as prepared in Example 1D was formulated with 9% CRM and 18% PrG to form a solution to which saline was added dropwise to yield 3.34 mg/ml of CuTCP and […] CuTCP-H, respectively. The resulting total doses were 215 mg/kg body weight for CuTCP and 149 mg/kg body weight for CuTCP-H. These solutions were then utilized for toxicity and biodistribution experiments in rats.
(§2) Direct current plasma-atomic emission spectroscopy [DCP-AES] (ARL/Fisons Model SS-7) was used (detection limit: 0.1 μg/ml). Samples (50-130 mg) were digested at 60° C. with sulfuric acid:nitric acid (1:1). Triton X-100 and water were added to give final concentrations of ≈50 mg tissue/ml, 15% total acid v/v and 5% Triton X-100 v/v. Fat and liver tissues were assayed for ^10 B by prompt-gamma spectroscopy (Fairchild, et al., 1986). The prompt-gamma measurements were multiplied by 5.0 to give the total boron concentrations due to the use of boron of natural isotope abundance in the syntheses of all boronated porphyrins reported.
Male Fischer 344 rats each bearing 4 subcutaneous 9L gliosarcomas were given 210-219 mg CuTCP/kg body wt by 48-h iv infusion. Tumor and blood were sampled at 0, 1, 2, and 3 days after the end of infusion for boron analyses and blood for toxicity. Rats were euthanized on day 3 and other organs were analyzed for boron uptake.

Data set [3] can be described thus: Toxicity testing of NiTCP, MnTCP and CuTCP in normal mice (Example 13, Table 3). The class given is in vivo, BALB/c mice. The conditions noted are these: 4 days after last of 6 ip injections. As to the method: Levels of glucose [GLU], blood urea nitrogen [BUN], blood creatinine [BCR], alanine transaminase [ALT], aspartate transaminase [AST], alkaline phosphatase [ALP], total protein [TPR], albumin [ALB], and creatine phosphokinase [CPK] were determined in blood plasma using a Cobas Fara II microanalysis system. Blood platelets [PLT] and white blood cells [WBC] were counted using a Serono-Baker System 9000 automated hematology microanalyzer.
Compounds prepared as in Example 1B and 1C were formulated with 6% Cremophor EL [CRM] and 12% propylene glycol [PrG] in saline. Total doses of MnTCP and CuTCP of 174 and 223 μg/g body weight, respectively, were administered to normal BALB/c mice. Each mouse was given 6 intraperitoneal [ip] injections over a period of 32 hours. Mice were euthanized 4 days after the last injection and chemical, enzymatic and hematological analyses of their blood were compared to those of similar mice given NiTCP at a dose of 252 μg/g body weight.

Data set [4] in a line: Boron biodistribution, mice with KHJJ mammary carcinomas (Examples 4-7, Table 1). The conditions noted are these: mouse, ip, 900 mg/kg, 6 hr after last i.p. injection, BPA 900 or NiTCP 160 μg/gbw, median (range). It is filed as in vivo, BALB/c mice. As to the method: (§3) Female BALB/c mice (Taconic Farms, Germantown, N.Y.) (20-25 g) were implanted with either KHJJ or EMT-6 tumors. For KHJJ tumors, 1-3 mm^3 tumor fragments were implanted subcutaneously (s.c.) in the dorsal thorax of each mouse using an 18-gauge trocar. For EMT-6 tumors, 2.5×10^5 cells were implanted similarly using a 27-gauge needle. EMT-6 tumor cells were grown alternately in vivo and in vitro. Single-cell suspensions were prepared from mouse-grown tumors by trypsinization. These were grown in cell culture for several passages and then were frozen in 10% DMSO and stored in liquid nitrogen. Prior to implantation in mice, the cells were thawed and grown in tissue culture in Alpha-MEM with 10% FBS for several passages.
(§4) Under deep halothane anesthesia leading to euthanasia, right ventricular blood was collected in Microtainer (Becton-Dickinson, Rutherford, N.J.) tubes containing EDTA for hematological analyses and boron assays of whole blood and in Microtainer™ tubes containing lithium heparin for chemical analyses and enzyme assays of blood plasma. Tumor, brain, fat, muscle, and liver tissues were sampled at necropsy for boron analyses.
as §2
(§5) Seven mice having KHJJ mammary carcinomas were given one intraperitoneal (i.p.) injection of 900 μg/g body weight of the boron compound presently used for BNCT of malignant brain tumors, p-boronophenylalanine (BPA) complexed with fructose. BPA was prepared in accordance with procedure described in Coderre, et al., 1996 incorporated herein by reference in its entirety as if set forth in full.
(§6) Mice were euthanized during the collection of blood while under Halothane anesthesia. At necropsy, the apparent states of structural integrity, consistency, color or abnormality, if any, of tissues were observed and tumor, brain and liver tissues were collected from each mouse for boron analysis.
(§7) Eight mice having KHJJ mammary carcinomas were injected with the NiTCP solution in the amount of 160 μg NiTCP/g body weight (36 μgB/g body weight) in six i.p. injections over 20 hours.
(§8) Six hours after the mice were last injected with NiTCP, mice were euthanized during the collection of blood while under Halothane anesthesia and right ventricular blood was collected from each mouse for hematological and chemical analysis without pooling the samples. At necropsy, the apparent states of structural integrity, consistency, color, or abnormality, if any, of tissues were observed and tumor, brain and liver tissues were collected from each mouse for boron analysis without pooling the samples.
(§9) Seven mice having KHJJ mammary carcinomas were injected with the NiTCP solution in the amount of 160 μg NiTCP/g body weight (36 μgB/g body weight) in six i.p. injections over 20 hours.
(§10) Sixteen hours after the mice were injected with NiTCP, mice were euthanized during the collection of blood while under Halothane anesthesia and right ventricular blood was collected from each mouse for hematological and chemical analysis without pooling the samples. At necropsy, the apparent states of structural integrity, consistency, color, or abnormality, if any, of tissues were observed and tumor, brain and liver tissues were collected from each mouse for boron analysis. […]

The next data set has as its system KHJJ mammary carcinomas. Described as above. It is filed as in vivo, BALB/c mice. The conditions noted are these: 6 hr after last i.p. injection; BPA 900 or NiTCP 160 μg/gbw; median (range); 900 mg/kg, 360 min. As to the method:
as §3, §4, §2, §5, §6, §7, §8, §9, §10

Data set [5] is described as follows: Experiment IV: boron concentrations in tissues, mice bearing EMT-6 tumors (Table 10). It is filed as in vivo, BALB/c mice. The conditions noted are these: mouse, ip, 837 mg/kg, BPA fructose complex, 6 hr, tumor model not restated. The method, then: (§11) Lipophilic porphyrins 1, 2, 4, 5, and 6 were injected as emulsions in either 3% or 9% CRM and either 6% or 18% PRG with saline as previously described in Example 2 above. Water soluble porphyrins 3 and 7 were dissolved in saline. BPA was solubilized as a fructose complex.
(§12) Female BALB/c mice (from Taconic Farms, Germantown, N.Y.) (20-25 g) were implanted with either KHJJ or EMT-6 tumors according to the procedure described in Example 3A above.
as §4
(§13) In Experiment IV, samples of BPA (836 μg/gbw), CuTCP (160 μg/gbw) and a combination of both were tested in mice with EMT-6 tumors. BPA was given in a single i.p. injection and mice were euthanized 6 hours later. CuTCP was given in 5 i.p. injections over 28 hours and mice were euthanized 90 hrs after the last injection. The group receiving both CuTCP and BPA were injected with CuTCP five times over 28 hours as was the CuTCP-only group and then with a single i.p. injection of BPA 6 hours prior to euthanasia which was 90 hours after the last injection of CuTCP.
(§14) Hematological, chemical and enzymatic tests were carried out as described in Example 3 above. Nonparametric statistical analyses were carried out using the Wilcoxon Two-Sample Test in accordance with procedures described in Slatkin, D.N., 1995. Boron analyses were conducted in accordance with the procedure described in Example 3 above. Fat and liver tissues were assayed for ^10 B by prompt-gamma spectroscopy as described in Fairchild, et al., 1986. These measurements were multiplied by 5.0 to give total boron concentrations due to the use of boron of natural isotope abundance in the syntheses of all boronated porphyrins reported.

Another data set relates to EMT-6 tumors. The description is as above. It is filed as in vivo, BALB/c mice. The conditions noted are these: 90 hrs after last of 5 ip CuTCP (160 μg/gbw); BPA (837 μg/gbw) 1 ip 6 hr before euthanasia; 836 mg/kg. The method, then:
as §11, §12, §4, §13, §14

The nature of data set [6]: Hematological, enzymatic and chemical blood analyses and weight change, mice with KHJJ mammary carcinomas (Examples 4-7, Table 1). The class given is in vivo, BALB/c mice. The conditions noted are these: NiTCP 160 or BPA 900 μg/gbw; 6-78 hr. The method, then:
as §3, with “passages. […]” for “passages.”
Levels of glucose [GLU], blood urea nitrogen [BUN], blood creatinine [BCR], alanine transaminase [ALT], aspartate transaminase [AST], alkaline phosphatase [ALP], total protein [TPR], albumin [ALB], and creatine phosphokinase [CPK] were determined in blood plasma using a Cobas Fara II microanalysis system. Blood platelets [PLT] and white blood cells [WBC] were counted using a Serono-Baker System 9000 automated hematology microanalyzer. […]

For data set [7] the following is noted: clinical BNCT (Coderre, et al., 1997); cited from earlier work.
Data set [8] has as its system 9L gliosarcomas. Further details: species or system Fischer 344 rats. The conditions noted are these: rat, in vivo. As to the method: as §1, §2
CuTCP-H (146-152 mg/kg body weight) was given to four Fischer 344 rats each bearing four subcutaneous 9L gliosarcomas. A solution of 3.34 mg CuTCP-H/mL, in 9% CRM and 18% PrG, was given to rats by 48-hour i.v. infusion in a total volume of 9.6 mL.

On to “Copper Tetracarboranylphenylporphyrin [CuTCP]”, for which, in [1], the “Drug tolerance/deliverable boron (ranking)” value is 4, the “Lipophilicity (ranking)” value is 2, the “Tumor uptake (normalized) (ranking)” value amounted to 3 and the “Tumor:Blood (ranking)” value amounted to 3. For the same compound, in the data set with 9L gliosarcomas [2], the “time to rapid and almost total clearance of boron in blood” value was ≤ 2 days. In addition, in the data set with 9L gliosarcomas [2] (215 mg/kg, 0 h), the “Boron concentration in tumor” value was 54-68 μg B/g. Moreover, in the data set with 9L gliosarcomas [2] (215 mg/kg, 48 h), the “Boron concentration in tumor” value is reported as 38-69 μg B/g, the boron in cerebellum is 1.5 μg B/g, the boron in cerebrum came out at 2.5 μg B/g and the “median boron in blood” value is reported as 6 μg B/g. Besides, the “median boron in tumor” value in the data set with 9L gliosarcomas [2] (215 mg/kg, 48 h) was found to be 55 μg B/g. For the same compound, in the data set on 9L gliosarcomas [2] (215 mg/kg, 72 h), the “average boron concentration, cerebellum” value is recorded as 1-2 μg B/g and the “average boron concentration, cerebrum” value is listed as 1-2 μg B/g. Besides, the “toxicity / thrombocytopenia, in words” value in [3] is recorded as “little if any difference in toxicity”.

Turning to `N[C@@H](Cc1ccc(B(O)O)cc1)C(=O)O` [BPA, p-boronophenylalanine], the concentration at 6 h in [4] (blood, read-out: Boron Concentration: Blood) came to 4600 ng/g. The concentration at 6 h in data set [4] (brain, read-out: Boron Concentration: Brain) was found to be 7200 ng/g. Besides, in data set [4] (tumor, read-out: Boron Concentration: Tumor), the concentration at 6 h was 13800 ng/g. For the same compound, the “Boron Concentration: Tumor” value in the data set with KHJJ mammary carcinomas is recorded as “≈ 14 μg B/g”. The concentration at 6 h in data set [5] (blood, read-out: Blood boron) was found to be 2000 ng/g. Moreover, the concentration at 6 h in data set [5] (brain, read-out: Brain boron, median) came to 8000 ng/g. Also, in the data set with EMT-6 tumors, the “Boron concentration, Blood” value is reported as 2.0 (1.2-3.6) μg B/g; the “Boron concentration, Brain” value was 8.1 (5.9-9.6) μg B/g; the “Boron concentration, Fat” value is 0.4 (0-1.8) μg B/g; the “Boron concentration, Liver” value is 2.1 (0.1-3.1) μg B/g. Also, in the data set on EMT-6 tumors, the “Boron concentration, Muscle” value is given as 3.8 (2.1-7.9) μg B/g; the “Boron concentration, Tumor” value was 5.4 (3.5-23) μg B/g and 5.4 μg B/g. Also, the “toxicity, in words” value in data set [6] is recorded as “undetectable, minimal, or negligible in every respect”. For the same compound, in data set [7], the “brain and blood boron concentrations relative to tumor” value is “approximately one-third that found in tumor”; the “chemical toxicity, in words” value is recorded as “not eliciting any chemical toxicity”.

With “Manganese Tetracarboranylphenylporphyrin [MnTCP]”, the “toxicity / thrombocytopenia, in words” value in data set [3] was “little if any difference in toxicity”.

Turning to “Copper Tetracarboranylporphyrin Hydride [CuTCP-H]”, the “tumor:blood ratio (boron)” value in the data set with 9L gliosarcomas [8] (2880 min) is recorded as 16:1. Further, in the data set with 9L gliosarcomas [8] (iv, 149 mg/kg, 0 h), the “Boron concentration, Blood” value is recorded as 183 (160-205) μg B/g and the “Boron concentration, Tumor” value is reported as 45 (23-51) μg B/g. Also, in the data set on 9L gliosarcomas [8] (iv, 149 mg/kg, 24 h), the “Boron concentration, Blood” value is given as 62 (56-65) μg B/g and the “Boron concentration, Tumor” value is 46 (35-52) μg B/g. In the data set on 9L gliosarcomas [8] (iv, 149 mg/kg, 120 h), the “Boron concentration, Blood” value is reported as 0.6 (0.3-0.7) μg B/g; the “Boron concentration, Cerebellum” value is reported as 2.8 (2.1-6.2) μg B/g; the “Boron concentration, Cerebrum” value was 4.9 (2.2-6.9) μg B/g; the “Boron concentration, Liver” value is 345 (336-408) μg B/g. Moreover, in the data set with 9L gliosarcomas [8] (iv, 149 mg/kg, 120 h), the “Boron concentration, Tumor” value is listed as 31 (23-55) μg B/g.
